Data on five compounds can be found in publication PMC5220503, “Simultaneous Determination of Bergapten, Imperatorin, Notopterol, and Isoimperatorin in Rat Plasma by High Performance Liquid Chromatography with Fluorescence Detection and Its Application to Pharmacokinetic and Excretion Study after Oral Administration of Notopterygium incisum Extract” (International Journal of Analytical Chemistry, 2016).

A short description of series [1]: Pharmacokinetic study in rats after oral administration of N. incisum extract (HPLC-FLD of plasma). Type of series: in vivo, Sprague–Dawley rats. How it is done: HPLC analysis was performed on an Agilent 1100 HPLC (Agilent Technologies, USA) equipped with a quaternary pump, a degasser, an autosampler, a column thermostat compartment, and a diode array detector (DAD). An Agilent fluorescence detector was coupled to the Agilent system. Separation was carried out with a Hedera ODS column (4.6 mm × 250 mm, 5 μm) by gradient elution at a temperature of 40°C. Excitation and emission of the fluorescence detector were set to 300 nm and 490 nm, respectively. The analysis involved a constant flow rate of 1.0 mL min^−1 and an injection volume of 30 μL. The mobile phase comprised of (A) aqueous formic acid (0.1%, v/v) and (B) acetonitrile after degassing through ultrasonication using a gradient elution of 15–30% B at 0 to 10 min, 30–42% B at 10 to 20 min, 42% B at 20 to 65 min, 42–80% B at 65–70 min, and 80–90% at 70–75 min. The reequilibration time of gradient elution was 10 min. Owing to the similarity in polarity of imperatorin and notopterol, it was essential to maintain 42% of acetonitrile for 45 min to ensure that the two compounds were well separated.
To a 100 μL aliquot of plasma sample, 10 μL IS solution was added. Samples were vortex-mixed for 2 min, extracted with 1000 μL ethyl acetate, and then centrifuged for 10 min at 18000 ×g. Supernatant was transferred into another centrifuge tube and evaporated to dryness using nitrogen gas. The dried residue was reconstituted by adding 100 μL methanol. The solution was shaken and ultrasonicated for 2 min. It was then centrifuged at 18000 ×g for 10 min. A 30 μL of the solution was run with the HPLC and analysis was performed.
The PK study was carried out in accordance with the guidelines for the care and use of laboratory animals and approved by the Animal Ethics Committee of Tianjin University of Traditional Chinese Medicine. Eight male Sprague–Dawley rats weighing 180–220 g were kept at the animal center of Tianjin University of Traditional Chinese Medicine (Tianjin, China) with controlled conditions (temperature at 25 ± 2°C and relative humidity of 55 ± 5%). They were allowed free access to food and water and acclimatized for 7 days until 12 h before the experiment. According to the clinical dose used in human for each day, the rats were administered an oral dose of 4.2 g kg^−1 N. incisum extract suspended in 0.5% carboxymethylcellulose sodium salt aqueous solution (CMC-Na) and an amount of blood sample (200 μL) was collected at time 0, 0.083, 0.167, 0.25, 0.5, 0.75, 1, 1.5, 2, 3, 4, 6, 8, 12, and 24 h into heparin-pretreated tubes from the fossa orbitalis of each rat after oral administration of the extract. Blood plasma was immediately obtained by centrifuging the collected blood at 3300 ×g for 10 min and storing at −20°C until analysis.
The DAS software (Drug and Statistics 1.0, Medical College of Wannan, China), a computer program, was used in calculating the pharmacokinetic parameters after administering N. incisum extract. Bergapten, imperatorin, and isoimperatorin where analyzed using a one-compartment analysis while notopterol was processed using a two-compartment analysis based on Akaike's information criterion (AIC) estimation.

A short description of series [2]: Excretion study in rat urine, feces and bile after oral N. incisum extract. The following applies: 0–72 h, oral 4.2 g kg^−1 N. incisum extract; for cumulative excretion in feces: rat feces; for cumulative excretion in urine: rat urine. The series is classed as in vivo, Sprague–Dawley rats. The text has this:
Sixteen male Sprague–Dawley (SD) rats (200 ± 20 g) were divided into two groups (group 1 were for collecting urine and fecal samples in metabolic cages while group 2 were for collecting bile samples from the bile duct using polyethylene tubes). For group 1, the rats were orally given N. incisum extract dissolved in 0.5% CMC-Na at a dosage of 4.2 g kg^−1 and placed in metabolic cages enabling collection of urine and fecal samples separately. The urine and fecal samples were collected at time intervals of 0–4, 4–8, 8–12, 12–24, 24–36, 36–48, 48–60, and 60–72 h. For group 2, the rats were anaesthetized with chloral hydrate at a dose of 0.3 g kg^−1 administered intraperitoneally. A polyethene tube was used in cannulating the bile duct ensuring continuous flow of bile. The rats were then administered the extract at a dose of 4.2 g kg^−1 and the bile samples were then collected at different time intervals (0-1, 1-2, 2-3, 3-4, 4-5, 5-6, 6-7, 7-8, and 8-9 h). After the volumes of urine and bile obtained were measured, these samples were stored at −20°C until analysis. The preparation of the urine and bile samples were the same as the plasma sample preparation described above. On the other hand, the fecal samples after collection were dried out in a drying oven at 40°C. After measuring the weights of the fecal samples, they were crushed by a mortar to achieve a uniform powder; 0.1 g of powdered feces was measured and 1 mL methanol was added in 1.5 mL polythene tubes, mixed sufficiently for 3 min, and extracted ultrasonically for 30 min. They were then centrifuged at 18000 ×g for 10 min. Supernatants were transferred into vials for analysis using HPLC-FLD.

The nature of series [3]: Stability of analytes in rat plasma (QC samples). The series is classed as in vitro ADME. The following applies: n = 6; for Stability, Autosampler for 24 h, Mean: extracted rat plasma, autosampler 24 h; for Stability, Freeze-thaw cycles, Mean / Stability, At −80°C for 1 month, Mean: rat plasma; for Stability, Freeze-thaw cycles, Mean: three freeze/thaw cycles. Here is the method: Mixed quality control (QC) samples at high, medium, low, and LLOQ concentrations were made by spiking appropriate mixed standard solutions into blank rat plasma, giving plasma concentration ranges of 600, 60, 12, and 4 ng mL^−1 for bergapten, 6000, 600, 120, and 40 ng mL^−1 for imperatorin, 600, 60, 12, and 4 ng mL^−1 for notopterol, and 300, 30, 6, and 2 ng mL^−1 for isoimperatorin, respectively, followed by the same sample preparation and extraction method described above.
The recovery was determined by comparing the observed peak area in extracted plasma samples to those of postprocessed spiked samples. […]

Setting [4] is: male, Sprague-Dawley, rat, in vivo, po, 4.2 g/kg.
Setting [5] is: male, Sprague-Dawley, rat, plasma, po, 4.2 g/kg, rat plasma, oral 4.2 g kg^−1 N. incisum extract, n = 8, mean ± SD, read-out: T 1/2 (converted).
[6] abbreviates: male, Sprague-Dawley, rat, plasma, po, 4.2 g/kg, rat plasma, oral 4.2 g kg^−1 N. incisum extract, n = 8, mean ± SD, read-out: T max.
Setting [7] is: male, Sprague-Dawley, rat plasma, oral 4.2 g kg^−1 N. incisum extract, n = 8, mean ± SD, read-out: AUC0–∞.
[8] abbreviates: male, Sprague-Dawley, rat plasma, oral 4.2 g kg^−1 N. incisum extract, n = 8, mean ± SD, read-out: C max.
The mark [9] stands for this setting: male, Sprague-Dawley, rat plasma, oral 4.2 g kg^−1 N. incisum extract, read-out: total drug exposure in rats in over 24 h, AUC0–24.
Setting [10] is: rat plasma, oral 4.2 g kg^−1 N. incisum extract, n = 8, mean ± SD.
The mark [11] stands for this setting: high QC (600, 6000, 600, 300 ng mL^−1).
[12] abbreviates: low QC (12, 120, 12, 6 ng mL^−1).
Setting [13] is: medium QC (60, 600, 60, 30 ng mL^−1).

Where two headings read alike, the source gives them in different places. Some results are limits rather than exact numbers.

For `CC(C)=CCOc1c2occc2cc2ccc(=O)oc12` [Imperatorin, imperatorin], in series [1] (setting [4]), the AUC(0-inf) worked out at 13900 ± 13900 ng·h/mL, the AUC(0-t) came out at 11000 ± 12000 ng·h/mL, the Cmax was found to be 1670 ± 1500 ng/mL and the “T 1/2” value came out at 4.99 ± 3.02 h. The same compound displayed a T max in series [1] (setting [4]) of 1.65 ± 1.80 h. For the same compound, the half-life in series [1] (male, Sprague-Dawley, rat, in vivo, po, 4.2 g/kg, T 1/2) is not above 6 h. Also, in series [1] (male, Sprague-Dawley, rat, in vivo, po, 4.2 g/kg, T max), the Tmax is less than 2 h.

In the case of `CC(C)=CCOc1c2ccoc2cc2oc(=O)ccc12` [Isoimperatorin, isoimperatorin], the half-life in series [1] (setting [5]) was not above 6 h. Also, the Tmax in series [1] (setting [6]) is less than 2 h. The AUC(0-inf) in series [1] (setting [7]) is 2120 ± 2870 ng·h/mL. For the same compound, the Cmax in series [1] (setting [8]) came out at 145 ± 75.9 ng/mL. The AUC(0-t) in series [1] (setting [9]) came out at 830 ± 762 ng·h/mL. Further, in series [1] (setting [10]), the “T 1/2” value is reported as 5.62 ± 4.06 h and the T max turned out to be 1.59 ± 0.97 h. For the same compound, in series [2], the “cumulative excretion in feces” value is on record as 7.7284 + 2.2114% and the “cumulative excretion in urine” value was 0.0084 + 0.0016%.

Regarding `COc1c2ccoc2cc2oc(=O)ccc12` [Bergapten, bergapten], the half-life in series [1] (setting [5]) was 12 h. Besides, in series [1] (setting [6]), the Tmax was approximately 3 h. Moreover, the AUC(0-inf) in series [1] (setting [7]) came out at 1960 ± 2490 ng·h/mL. The Cmax in series [1] (setting [8]) is 184 ± 171 ng/mL. Besides, in series [1] (setting [9]), the AUC(0-t) turned out to be 1640 ± 2490 ng·h/mL. Also, in series [1] (setting [10]), the “T 1/2” value is 12.8 ± 22.2 h and the T max came out at 3.06 ± 3.71 h. In series [2], the “cumulative excretion in feces” value is “about 80%”. In addition, in series [3] (LLOQ QC (4, 40, 4, 2 ng mL^−1)), the “Stability, Autosampler for 24 h, Mean” value came to 100%; the “Stability, Freeze-thaw cycles, Mean” value turned out to be 106%; the “Stability, At −80°C for 1 month, Mean” value is 80.5%. Moreover, in series [3] (setting [11]), the “Stability, Autosampler for 24 h, Mean” value is listed as 88.9%; the “Stability, Freeze-thaw cycles, Mean” value is reported as 85.1%; the “Stability, At −80°C for 1 month, Mean” value was 112%. Moreover, in series [3] (setting [12]), the “Stability, Autosampler for 24 h, Mean” value was 101%; the “Stability, Freeze-thaw cycles, Mean” value amounted to 91.1%; the “Stability, At −80°C for 1 month, Mean” value amounted to 91.1%. Also, in series [3] (setting [13]), the “Stability, Autosampler for 24 h, Mean” value turned out to be 115%; the “Stability, Freeze-thaw cycles, Mean” value is recorded as 83.6%; the “Stability, At −80°C for 1 month, Mean” value was determined as 104%.

`COc1ccc2ccc(=O)oc2c1CC=C(C)C` [osthole, reference compound]: in series [1] (after oral 4.2 g kg^−1 N. incisum extract), the “detection in rat plasma” value was “not detected”.

Consider `CC(C)=CC(O)C/C(C)=C/COc1c2ccoc2cc2oc(=O)ccc12` (stereo not shown) [Notopterol, notopterol], for which the half-life in series [1] (setting [5]) is not above 6 h. Further, the AUC(0-inf) in series [1] (setting [7]) is 296 ± 242 ng·h/mL. Also, the Cmax in series [1] (setting [8]) worked out at 23.3 ± 6.87 ng/mL. Also, the AUC(0-t) in series [1] (setting [9]) amounted to 102 ± 34.8 ng·h/mL. Also, in series [1] (setting [10]), the “T 1/2” value turned out to be 3.18 ± 3.44 h and the T max was 0.45 ± 0.35 h. Besides, in series [1] (rat plasma, oral 4.2 g kg^−1 N. incisum extract, n = 8, mean ± SD, listed as notopterol), the T max entry is reported as “below 2 h”. For the same compound, in series [2], the “cumulative excretion in feces” value is 54.1083 + 4.4359% and the “cumulative excretion in urine” value is recorded as 0.1171 + 0.0096%.
